Data: ChEMBL document CHEMBL2390821, “Flaxseed (Linum usitatissimum L.) extract as well as (+)-secoisolariciresinol diglucoside and its mammalian derivatives are potent inhibitors of α-amylase activity” (Bioorg Med Chem Lett, 2013)
Calls of active or inactive are those of the source. The calls are words filed in the database; no cut-off is given here.

Tests used:
[1] = species on record: Rattus norvegicus; assay: Inhibition of immobilized rat intestinal alpha-glucosidase using 4-nitrophenyl-alpha-D-glucopyranoside as substrate assessed as enzyme activity after 30 mins by spectrophotometry relative to control; design: concentration or dose not given beside the values
[2] = […] inhibition of pig pancreas soluble alpha-amylase using 4-nitrophenyl-alpha-D-maltopentaoside as substrate assessed as enzyme-substrate-inhibitor dissociation constant after 30 mins by double reciprocal plot method; design: species or system Sus scrofa
[3] = […] inhibition of pig pancreas soluble alpha-amylase using 4-nitrophenyl-alpha-D-maltopentaoside as substrate assessed as enzyme-inhibitor dissociation constant after 30 mins by double reciprocal plot method; design: species or system Sus scrofa
[4] = species on record: Sus scrofa; assay: Mixed-type inhibition of pig pancreas soluble alpha-amylase using 4-nitrophenyl-alpha-D-maltopentaoside as substrate assessed as formation of inactive enzyme-inhibitor complex after 30 mins by spectrophotometry
[5] = Inhibition of pig pancreas soluble alpha-amylase using 4-nitrophenyl-alpha-D-maltopentaoside as substrate after 30 mins by spectrophotometry; design: species or system Sus scrofa

SMILES	Activity [1]	Ki [2]	Ki [3]	inhibition [4]	IC50 [5]
C[C@H]1O[C@H](O[C@H]2[C@H](O)[C@@H](O)[C@@H](O[C@H]3[C@H](O)[C@@H](O)C(O)O[C@@H]3CO)O[C@@H]2CO)[C@H](O)[C@@H](O)[C@@H]1N[C@H]1C=C(CO)[C@@H](O)[C@H](O)[C@H]1O (some centres not stated)	34.4%				
OC[C@@H](Cc1cccc(O)c1)[C@@H](CO)Cc1cccc(O)c1 [(+)-ENTERODIOL]	69.9%	40.3 µM	94.1 µM	Active	8.6 µM
O=C1OC[C@@H](Cc2cccc(O)c2)[C@@H]1Cc1cccc(O)c1 [(+)-ENTEROLACTONE]	73.9%				10.9 µM
COc1cc(C[C@H](CO[C@@H]2O[C@H](CO)[C@@H](O)[C@H](O)[C@H]2O)[C@@H](CO[C@@H]2O[C@H](CO)[C@@H](O)[C@H](O)[C@H]2O)Cc2ccc(O)c(OC)c2)ccc1O [(+)-SECOISOLARICIRESINOLDIGLUCOSIDE]	74.3%				15.7 µM
COc1cc(C[C@@H](CO)[C@H](CO)Cc2ccc(O)c(OC)c2)ccc1O [(+)-SECOISOLARICIRESINOL]	72.4%				9.5 µM
